Data as given in the METLIN SMRT retention time set (Domingo-Almenara et al. 2019).

test: gradient 5% acetonitrile 3 min, to 50% in 2 min, to 85% in 15 min, held 3 min, 100 µL/min; details: column: Zorbax Extend-C18 2.1 x 50 mm; eluents: water / acetonitrile, 0.1% formic acid
How it was run: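 Over 3 months, pure standards in mixtures of ~100 molecules were run by HPLC coupled to a quadrupole time-of-flight mass spectrometer in positive and negative ionization mode. The column was a Zorbax Extend-C18 (2.1 × 50 mm, 1.8 μm) at 100 μL/min, eluted with water and acetonitrile each holding 0.1% formic acid, with 40 μL dead and 900 μL dwell volumes. Retention time was determined from adduct peaks chosen by software and checked manually.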

SMILES | RP-LC retention time [s]
COc1ccc(-c2c(C)noc2NC(C)=O)cc1S(=O)(=O)Nc1cccc(C(F)(F)F)c1 | 821
O=C(Nc1cnn(-c2ncc(N3CCCCC3)cn2)c1)NC1CCCC1 | 754
Cc1ccc(C(=O)N2CCC(n3c(-c4ccoc4)nc4cccnc43)C2)cc1C (stereo not given) | 806
CCOC(=O)c1cc(S(=O)(=O)N2CCCC2C(=O)Nc2cccc(SC)c2)cn1C (stereo not given) | 995
O=C(Cn1c(=O)c2cccn2c2ccc(F)cc21)NCCc1cccs1 | 822
O=C(NCCN1CCOCC1)C1CCc2sc(C(=O)N3CCOCC3)cc2C1 (stereo not given) | 561
CSc1ccc(-c2nc3ncccn3c2Nc2ccc(C)c(C)c2)cc1 | 889
CN(CCc1noc(-c2ccccc2)n1)C(=O)Nc1ccc(F)c(Cl)c1 | 954
Cc1nc(-c2cccc(C(=O)N3CCN(c4nc5cccnc5o4)CC3)c2)no1 | 688
O=C(CN1C(=O)C2CCCCN2c2ccc(C(=O)N3CCCC3)cc21)Nc1ccncc1 (stereo not given) | 622
CCc1nc(-n2cccc2)sc1C(=O)Nc1ccc(C)cc1F | 1200
Cc1cc(OCC(=O)N[C@H](C(=O)O)C(C)C)c2c3c(c(=O)oc2c1)CCCC3 | 837
O=C(c1cccnn1)N1C[C@@H](COCC2CC2)[C@H](c2ccncc2)C1 | 563
Cc1sc2ccn(CC(C)C)c(=O)c2c1C(=O)NCCN1CCN(C)CC1 | 574
Cc1ccc(NC(=O)C2CCN(S(C)(=O)=O)c3cc(C)ccc3O2)c(C)c1 (stereo not given) | 945
CCn1nccc1-c1csc(S(=O)(=O)N2CCCC2)c1 | 864
Cc1cc(C(=O)OCC(=O)c2cccc([N+](=O)[O-])c2)c2ccccc2n1 | 804
CCCNC(=O)N(C1CCOCC1)C1CCN(C(=O)c2ccsc2)CC1 | 680
CCc1ccc(NC(=O)c2cccn2Cc2noc(C)n2)cc1 | 910
Cn1c(NCCN(CCO)CCCc2ccc([N+](=O)[O-])cc2)cc(=O)n(C)c1=O | 610
O=C(CSc1nc2ccccc2c(=O)n1Cc1cccs1)Nc1ncn[nH]1 | 670

SMILES | RP-LC retention time [s]
COc1ccc(S(=O)(=O)N2C[C@@H](F)C[C@H]2C(=O)N2CCOCC2)cc1 | 669
O=C(NCc1ccc(F)cc1F)C1CCN(c2ccc(SCc3ccccc3)nn2)CC1 | 646
Cc1ccc(CNC(=O)CN2C(=O)C3CCCCN3c3ccc(S(=O)(=O)N4CCCC4)cc32)cc1 (stereo not given) | 966
CCCn1cc(C(=O)NC2CCCC2)c2nn(-c3ccccc3)c(=O)c-2c1 | 738
COc1cccc(-c2ccnc3nc(C4CCC4)nn23)c1 | 868
CCOC(=O)c1noc2nc(C)nc(NCC3CCN(Cc4ccc(C)cc4)CC3)c12 | 705
Fc1cccc(-c2nnc(Cc3nc(-c4ccc5c(c4)OCO5)no3)o2)c1 | 958
CCc1nc(-c2cc(S(=O)(=O)NCC(=O)N3CCOCC3)c(C)s2)no1 | 753
CCn1cc(-c2ccc(OC)cc2)cc1C(=O)N1CCC(C)CC1 | 1110
CCOC(=O)c1nc(N(Cc2ccccc2)C(C)C)c2ccccc2n1 | 1000
CCCn1c(C)cnc1C1CN(S(=O)(=O)c2ccc(F)c(Cl)c2)C1 | 706
O=C(CCc1nnc2c3cc(-c4ccc(F)cc4)nn3ccn12)NCCN1CCCC1 | 605
O=C(CCCSc1ccc(NC(=O)c2ccc(F)cc2)nn1)Nc1nccs1 | 745
CCCCN(CCCNC(=O)c1cc(C)nn1-c1ccccc1)Cc1ccccc1 | 656
CC(C)NC(=O)c1c(OCC2CC2)cc(=O)n2c1CCCCC2 | 673
CC1=C(c2ccc(F)cc2)S(=O)(=O)N=C1N1CCCN(C(=O)Cc2ccsc2)CC1 | 812
Cc1ccc(-c2ncccc2CNC(=O)c2ccco2)cc1 | 608
CC12CC(NC(=O)N1c1cccc(C(=O)Nc3ccc4c(c3)OCCO4)c1)c1ccccc1O2 (stereo not given) | 830
N#Cc1ccccc1CN1CC[C@@H]2CN(Cc3cccnc3)[C@@H]2C1 | 556
Cc1ccc(CNC(=O)C2CCN(c3cnc(N4CCCC4)nc3)CC2)cc1 | 680
COc1ccc(-c2nc3cnccn3c2Nc2ccc(C(=O)NCc3ccco3)cc2)cc1 | 710

Now from value to compound:

RP-LC retention time [s] | SMILES
648 | Cn1ccc2cc(S(=O)(=O)N3CCC(C(=O)N4CCN(c5ccccn5)CC4)CC3)ccc21
1100 | CC12CC(Br)(Br)C(=O)C3C1CCCC32
896 | COc1ccc(N2CCN(C(=O)c3[nH]c(C)c(S(=O)(=O)N4CCC(C)CC4)c3C)CC2)cc1
850 | O=C(Cn1nc2c(N3CCSCC3)nccn2c1=O)NCCc1ccc(Cl)cc1
970 | Cc1nc2ccccc2nc1SCC(=O)c1ccccc1
821 | Cc1ccc(C)c(-c2csc(Nc3ccccn3)n2)c1
641 | COc1ccc2[nH]c3c(c2c1)CCNC31CCN(S(=O)(=O)c2c(C)nn(C)c2C)CC1
661 | COCCNc1c(-c2ccc(F)cc2)nc2sc(C(=O)NCc3ccccn3)c(C)n12
749 | O=C(c1ccc2ccnc(N3CCN(c4ccc(F)cc4)CC3)c2c1)N1CCN(c2ncccn2)CC1
544 | COc1cn(CC(=O)NCc2ccco2)c(CO)cc1=O
977 | Cc1cc(C(=O)N2CCCCCC2)nc2cc(-c3cccs3)nn12
711 | COCc1nc2nccc(-c3ccc(OC)cc3F)n2n1
625 | COCc1cc(=O)n(CC(=O)NCc2ccc(F)c(Cl)c2)c(N)n1
891 | COc1ccc2nc(C(=O)NCc3ccccc3Br)cn2n1
750 | CCC(=O)N1CCc2cc(N3CC(C(=O)Nc4ccccc4CC)CC3=O)ccc21 (stereo not given)
734 | CCCCNc1c(C(=O)OC)c(=O)[nH]c2ccc(F)cc12
610 | CC(C)NC[C@@H](C(=O)N1CCN(c2ncnc3c2[C@H](C)C[C@H]3O)CC1)c1ccc(Cl)cc1
1030 | Cc1nc2cc(-c3noc(COc4ccccc4)n3)ccc2o1
714 | Cn1cc(CN2CCC(C(=O)NCc3ccccc3)CC2)c2cc(Cl)ccc21
940 | COc1ccc(-c2nc3ncc4c(=O)n(CCc5c[nH]c6ccccc56)ccc4n3n2)cc1
694 | O=C1CC(CNS(=O)(=O)c2cccnc2)CN1c1ccc(Cl)cc1 (stereo not given)
789 | COc1ccc(C2CC(=O)N(c3ccc4c(c3)OCCO4)C(=O)C2)cc1OC
691 | COc1ccc(CCNC(=O)CN2C(=O)NC3(CCCCC3)C2=O)cc1OC
617 | COC(=O)Nc1nc(CC(=O)NCc2cn3ccccc3n2)cs1

RP-LC retention time [s] | SMILES
681 | Cc1[nH]c(C(=O)N2CCCC(C(=O)NCc3ccc(N(C)C)cc3)C2)c(C)c1C(=O)OC(C)C (stereo not given)
674 | C=CCNC(=O)C1CCCN(c2ncnc3c2oc2ccccc23)C1 (stereo not given)
967 | O=C(Nc1ccc(Br)cc1)C1CCCN1S(=O)(=O)c1ccc(F)cc1 (stereo not given)
744 | O=C(Cn1cnc(-c2nc(-c3ccccc3)cs2)c1)Nc1ccc(F)cc1F
693 | CS(=O)(=O)N1CCCC1C(=O)Nc1ccc(F)cc1 (stereo not given)
622 | CCCc1cc(N2CCN(C(=O)c3ccc4c(c3)OCO4)CC2)nc2nncn12
706 | CCN1CCC(N(Cc2ccc3c(c2)OCO3)C(=O)Nc2cc(C)ccc2OC)CC1
643 | CCOc1cccc2c(C)nc(NC3=NCN(CCOC)CN3)nc12
796 | CCCN1C(=O)c2c(C(=O)NCc3ccc(F)cc3)ncn2CC1(C)C(=O)NC1CCCC1 (stereo not given)
666 | COc1ccc(NC(=O)c2nc(N3CCCC3)c3c(C)cc(C)nc3n2)c(C)c1
779 | O=C(CN1C(=O)NC2(CCCCC2)C1=O)Nc1cc(F)ccc1F
644 | N#Cc1cccc(-c2cn3c(n2)N(C(=O)c2ccoc2)CCC3)c1
768 | Cc1cc2[nH]c(C(=O)Nc3cccc(Cl)c3F)c(CN3CCOCC3)c2s1
654 | Cc1cc(C(=O)N2CCC[C@H]2c2nc(-c3ccccc3)n[nH]2)nn1C
590 | O=C(Cc1ccsc1)N1CCC2(CC1)CC(N1CCCCC1)CCO2 (stereo not given)
834 | Cc1nc(-c2cccc(NC(=O)c3cncc(Br)c3)c2)no1
888 | O=C(Cn1ccc2ccn(Cc3ccccc3)c2c1=O)NCc1ccccc1Cl
900 | Cc1cc(N2CCC(NC(=O)Nc3ccc(C)c(F)c3)C2=O)ccc1F (stereo not given)
592 | Cc1ccc(C(=O)NCCN2CCCC2)cc1NC(=O)C1=CSCCO1
686 | CCN(CC)S(=O)(=O)c1ccc2c(c1)N(CC(=O)NCc1cccc(C)c1)C(=O)C1CCCCN21 (stereo not given)
622 | COCc1cn(C2CN(C(=O)c3ccc(OC)cc3OC)C2)nn1
601 | CN1CCN(CCNC(=O)C2CCc3sc(C(=O)N4CCCCCC4)cc3C2)CC1 (stereo not given)
762 | Cn1c(-c2cccc(C(=O)NCc3cc(F)cc(F)c3)c2)nc2cccnc21
737 | COc1ccc(N2CCN(C(=O)C3CCCN(c4cnc5nccnc5c4)C3)CC2)cc1 (stereo not given)
